50 compounds from paper PMC8587015, “AGSE: A Novel Grape Seed Extract Enriched for PP2A Activating Flavonoids That Combats Oxidative Stress and Promotes Skin Health” (Molecules, 2021) can be followed below.

The structures appear in SMILES notation. Several values for one entry are separate records, joined by “and”; a condition that tells them apart may be missing. Equal values may be shown once. A value given as a limit tells only on which side of the number the result lay.

What is called IC50 is the midpoint of a concentration-inhibition curve.

The target of the first test is T1, PME-1 (Protein phosphatase methylesterase 1) (Homo sapiens, UniProt Q9Y570).
T1 sequence (Q9Y570 1-386): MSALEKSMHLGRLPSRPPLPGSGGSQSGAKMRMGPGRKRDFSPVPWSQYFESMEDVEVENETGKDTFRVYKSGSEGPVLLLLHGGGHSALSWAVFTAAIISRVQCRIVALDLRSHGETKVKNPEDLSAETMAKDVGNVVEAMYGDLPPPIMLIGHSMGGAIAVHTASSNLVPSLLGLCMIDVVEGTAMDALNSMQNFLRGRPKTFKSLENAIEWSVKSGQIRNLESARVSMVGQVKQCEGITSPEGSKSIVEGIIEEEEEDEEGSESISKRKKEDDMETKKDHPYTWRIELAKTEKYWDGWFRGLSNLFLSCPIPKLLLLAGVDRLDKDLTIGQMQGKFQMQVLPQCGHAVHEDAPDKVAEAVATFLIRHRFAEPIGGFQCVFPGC
The test is described as follows: Demethylation of PP2A by PME-1, radioactive filter binding assay.
Conditions: not given
In kind it is biochemical. Here is the method: [^3H]-labeled methylated PP2A AC dimer was prepared by incubating PP2A, LCMT1 and [^3H]-SAM (PerkinElmer; Waltham, MA, USA) in 50 mM MOPS-Na (pH 7.2), 5 mM MgCl2, and 1 mM DTT at room temperature for 1 h. Demethylation of PP2A by PME-1 (Protein phosphatase methylesterase 1) was measured using the radioactive filter binding assay format. 20 nM PME-1 was incubated for 15 min with extract or compound, then 20 nM of [^3H]-labeled methylated PP2A AC dimer was added. Reactions were run at room temperature for 30 min then applied to a 96-well filter plate (MilliporeSigma; Burlington, MA, USA.) containing 30% TCA where proteins were precipitated and separated from the excess of [^3H]-SAM by washing with 70% ethanol. [^3H]-incorporation was measured using TopCount NXT scintillation counter (PerkinElmer; Waltham, MA, USA). IC50 values were generated from dose–response curves using a four-parameter logistic curve fit in SigmaPlot (Systat Software, Inc., Palo Alto, CA, USA).
For the compound `Oc1ccc(/C=C/c2cc(O)cc(O)c2)cc1` [Resveratrol], the “activity in preventing PP2A demethylation (in words)” value was “does not function through this PP2A mechanism”.

The test is the same for the next values; noted with them: GSE flavonoids / grape seed components; read-out: IC50, PP2A demethylation activity assay.
Consider `CC(=O)Oc1cc(O)c2c(c1)OC(c1ccc(OC(C)=O)c(OC(C)=O)c1)C(OC(C)=O)C2=O` (stereo not drawn) [2-(acetyloxy)-4-[3,7-bis(acetyloxy)-5-hydroxy-4-oxo-3,4-dihydro-2H-chromen-2-yl]phenyl acetate], for which the IC50 was more than 15 µM.

Regarding `COc1cc(O)c(C(=O)/C=C/c2ccc(O)cc2)c(OC)c1` [2′,4-dihydroxy-4′,6′-dimethoxychalcone], the IC50 was more than 25 µM.

Take `COc1cc(-c2oc3cc(O)cc(O)c3c(=O)c2O)ccc1O` [3,5,7,4′-Tetrahydroxy-3′-methoxyflavone]: the half-maximal inhibitory concentration (IC50) is more than 15 µM.

Consider `COc1cc(-c2oc3cc(O)cc(O)c3c(=O)c2O)cc(OC)c1OC` [3,5,7-Trihydroxy-3′,4′,5′-Trimethoxyflavone], for which the IC50 was more than 15 µM.

Turning to `Cc1ccc(O)c(O)c1` [4-methylcatechol], the half-maximal inhibitory concentration (IC50) was more than 15 µM.

For `COc1cc(OC)c2c(c1)OC(c1ccc(O)cc1)CC2=O` (stereo not drawn) [5,7-dimethoxy-4′hydroxyflavanone], the IC50 was more than 25 µM.

For `O=c1cc(-c2ccc(O)cc2)oc2cc(O)cc(O)c12` [Apigenin], the IC50 was more than 15 µM.

`CO/C=C(/C(=O)OC)c1ccccc1Oc1cc(Oc2ccccc2C#N)ncn1` [Azoxystrobin]: the half-inhibitory concentration (IC50) is more than 15 µM.

As for `O=c1cc(-c2ccccc2)oc2cc(O)c(O)c(O)c12` [Baicalein], the concentration for half-maximal inhibition (IC50) came out at 3.4 µM.

Take `COc1ccc(-c2coc3cc(O)cc(O)c3c2=O)cc1` [Biochanin a]: the IC50 was approximately 15 µM.

With `O=C(O)/C=C/c1ccc(O)c(O)c1` [Caffeic Acid], the IC50 was more than 15 µM.

`Oc1cc(O)c2c(c1)O[C@H](c1ccc(O)c(O)c1)[C@@H](O)C2` [Catechin]: the IC50 is more than 15 µM.

In the case of `Oc1cc(O)c2cc(O)c(-c3ccc(O)c(O)c3)[o+]c2c1` [Cyanidin chloride], the IC50 was 4.3 µM.

For the compound `Oc1cc(O)c2cc(O)c(-c3cc(O)c(O)c(O)c3)[o+]c2c1` [Delphinidin], the IC50 was determined as 5.1 µM.

Take `O=c1c(-c2ccc(O)cc2)coc2cc(O)ccc12` [Diadzein]: the half-inhibitory concentration (IC50) was more than 15 µM.

For `O=c1c(-c2ccc(O)cc2)coc2cc(O[C@@H]3O[C@H](CO)[C@@H](O)[C@H](O)[C@H]3O)ccc12` [Diadzin], the IC50 was more than 15 µM.

For the compound `COc1ccc(-c2cc(=O)c3c(O)cc(O[C@@H]4O[C@H](CO[C@@H]5O[C@@H](C)[C@H](O)[C@@H](O)[C@H]5O)[C@@H](O)[C@H](O)[C@H]4O)cc3o2)cc1O` [Diosmin], the half-maximal inhibitory concentration (IC50) is approximately 25 µM.

For the compound `O=C(O[C@@H]1Cc2c(O)cc(O)cc2O[C@@H]1c1ccc(O)c(O)c1)c1cc(O)c(O)c(O)c1` [Epicatechin gallate], the IC50 turned out to be 1.4 µM.

In the case of `O=C(O[C@@H]1Cc2c(O)cc(O)cc2O[C@@H]1c1cc(O)c(O)c(O)c1)c1cc(O)c(O)c(O)c1` [Epigallocatechin gallate], the IC50 is 2.6 µM.

Take `Oc1cc(O)c2c(c1)O[C@H](c1cc(O)c(O)c(O)c1)[C@H](O)C2` [Epigallocatechin]: the concentration for half-maximal inhibition (IC50) was more than 15 µM.

With `O=C1C[C@@H](c2ccc(O)c(O)c2)Oc2cc(O)cc(O)c21` [Eriodictyol], the IC50 was more than 25 µM.

Take `C=CCc1ccc(O)c(OC)c1` [Eugenol]: the concentration for half-maximal inhibition (IC50) is more than 15 µM.

Regarding `COc1ccc(-c2coc3cc(O)ccc3c2=O)cc1` [Formonoetin], the IC50 is more than 15 µM.

On to `C=C[C@@]1(C)CC(=O)[C@]2(O)[C@@]3(C)[C@@H](O)CCC(C)(C)[C@@H]3[C@H](O)[C@H](OC(C)=O)[C@@]2(C)O1` [Forskolin], for which the IC50 is more than 25 µM.

Regarding `O=C(O)c1cc(O)c(O)c(O)c1` [Gallic acid], the IC50 was more than 15 µM.

For `O=c1c(O)c(-c2ccc(O)c(O)c2)oc2c(O)c(O)cc(O)c12` [Gossypetin], the half-inhibitory concentration (IC50) was 4.9 µM.

As to `CC(C)NC(=O)N1CC(=O)N(c2cc(Cl)cc(Cl)c2)C1=O` [Iprodione], the IC50 was more than 15 µM.

For `O=c1cc(-c2ccc(O)c(O)c2)oc2cc(O)c([C@@H]3O[C@H](CO)[C@@H](O)[C@H](O)[C@H]3O)c(O)c12` [Isoorientin], the half-inhibitory concentration (IC50) was more than 25 µM.

`O=c1c(O[C@@H]2O[C@H](CO)[C@@H](O)[C@H](O)[C@H]2O)c(-c2ccc(O)c(O)c2)oc2cc(O)cc(O)c12` [Isoquercetin]: the concentration for half-maximal inhibition (IC50) was more than 15 µM.

Turning to `COc1ccc(-c2oc3cc(O)cc(O)c3c(=O)c2O)cc1` [Kaempferide], the half-maximal inhibitory concentration (IC50) worked out at 2 µM.

For `O=c1cc(-c2ccc(O)c(O)c2)oc2cc(O[C@@H]3O[C@H](CO)[C@@H](O)[C@H](O)[C@H]3O)cc(O)c12` [Luteolin 7-O-B-glucoside], the 50% inhibitory concentration (IC50) was more than 25 µM.

Consider `O=c1cc(-c2ccc(O)c(O)c2)oc2cc(O)cc(O)c12` [Luteolin], for which the half-maximal inhibitory concentration (IC50) amounted to 1.7 µM.

Take `COc1c(O)cc2oc3cc(O)c(CC=C(C)C)c(O)c3c(=O)c2c1CC=C(C)C` [Mangostine]: the IC50 stood at 1.7 µM.

Consider `COC(=O)Cc1cc(=O)oc2cc(OC)c(OC)cc12` [Methyl 6,7-dimethoxycoumarin-4-acetate], for which the IC50 is more than 25 µM.

For the compound `O=c1c(O)c(-c2ccc(O)cc2O)oc2cc(O)cc(O)c12` [Morin], the half-maximal inhibitory concentration (IC50) is more than 15 µM.

With `CCCCC(C#N)(Cn1cncn1)c1ccc(Cl)cc1` (stereo not drawn) [Myclobutanil], the IC50 is more than 15 µM.

For `O=c1c(O)c(-c2cc(O)c(O)c(O)c2)oc2cc(O)cc(O)c12` [Myricetin], the 50% inhibitory concentration (IC50) came out at 0.99 µM.

Regarding `C[C@@H]1O[C@@H](O[C@H]2[C@H](Oc3cc(O)c4c(c3)O[C@H](c3ccc(O)cc3)CC4=O)O[C@H](CO)[C@@H](O)[C@@H]2O)[C@H](O)[C@H](O)[C@H]1O` [Naringin], the IC50 is more than 25 µM.

For the compound `C[C@@H]1O[C@@H](OC[C@H]2O[C@@H](Oc3cc(O)c4c(c3)O[C@H](c3ccc(O)cc3)CC4=O)[C@H](O)[C@@H](O)[C@@H]2O)[C@H](O)[C@H](O)[C@H]1O` [Narirutin], the half-maximal inhibitory concentration (IC50) is more than 25 µM.

Consider `O=c1cc(-c2ccc(O)c(O)c2)oc2c([C@@H]3O[C@H](CO)[C@@H](O)[C@H](O)[C@H]3O)c(O)cc(O)c12` [Orientin], for which the half-maximal inhibitory concentration (IC50) is more than 25 µM.

Take `Oc1cc(O)cc(O)c1` [Phloroglucinol]: the 50% inhibitory concentration (IC50) is more than 15 µM.

Turning to `CC(C)(O)[C@@H]1[C@H]2OC(=O)[C@@H]1[C@]1(O)C[C@H]3O[C@]34C(=O)O[C@H]2[C@]14C` [Picrotin], the IC50 is more than 25 µM.

Consider `Oc1cc(O)c2c(c1)O[C@H](c1ccc(O)c(O)c1)[C@H](O)[C@H]2c1c(O)cc(O)c2c1O[C@H](c1ccc(O)c(O)c1)[C@@H](O)C2` [Procyanidin B1], for which the 50% inhibitory concentration (IC50) is more than 35 µM.

For `Oc1cc(O)c2c(c1)O[C@H](c1ccc(O)c(O)c1)[C@H](O)[C@H]2c1c(O)cc(O)c2c1O[C@H](c1ccc(O)c(O)c1)[C@H](O)C2` [Procyanidin B2], the IC50 was more than 35 µM.

In the case of `Oc1cc(O)c2c(c1)O[C@H](c1ccc(O)c(O)c1)[C@@H](O)[C@@H]2c1c(O)cc(O)c2c1O[C@H](c1ccc(O)c(O)c1)[C@@H](O)C2` [Procyanidin B3], the IC50 is more than 35 µM.

On to `Oc1cccc(O)c1O` [Pyrogallol], for which the concentration for half-maximal inhibition (IC50) is approximately 15 µM.

As to `O=c1c(O)c(-c2ccc(O)c(O)c2)oc2cc(O)c(O)c(O)c12` [Quercetagetin], the half-maximal inhibitory concentration (IC50) is 0.5 µM and ~0.5 µM.

With `O=c1c(O)c(-c2ccc(O)c(O)c2)oc2cc(O)cc(O)c12` [Quercetin], the IC50 stood at 2.5 µM.

For the compound `Oc1ccc(/C=C/c2cc(O)cc(O)c2)cc1` [Resveratrol], the 50% inhibitory concentration (IC50) is more than 100 µM.

The same test, now with this note: IC50, PP2A demethylation activity assay, GSE flavonoids / grape seed components.
In the case of `COP(=S)(OC)SCN1C(=O)c2ccccc2C1=O` [Phosmet], the IC50 is more than 15 µM.
